What was measured:
Type in all cases: cell-based, mouse
[1] = system: WT Th17 cells; test: Nanostring nCounter Th17 codeset (312 genes), SFA- or control-treated WT Th17 cells; settings: WT Th17 cells + SFA
Excerpt: Applicants studied the contribution of lipid saturation to Th17 cell pathogenicity. […] Applicants analyzed the expression of a 312 gene signature of Th17 cell differentiation and function (Yosef et al., 2013) in SFA- or control-treated WT Th17 cells and in PUFA- or control-treated CD5L−/− Th17 cells differentiated with TGF-81+IL-6.
T cell differentiation culture. Naïve CD4+CD44−CD62L+CD25− T cells or Effector memory CD4+CD44+CD62L− were sorted using BD FACSAria sorter and activated with plate-bound anti-CD3 and anti-CD28 antibodies (both at 2 μg/ml) in the presence of cytokines at a concentration of 2.5×10^5 cells/ml. For Th17 differentiation: 2 ng/ml of rhTGFβ1, 2 ng/ml of rhTGFβ3, 25 ng/ml rmIL-6, 20 ng/ml rmIL-18 (all from Miltenyi Biotec) and 20 ng/ml rmIL-23 (R & D systems) were used at various combinations as specified in figures. For Th1 differentiation, 20 ng/ml rmIL-12 (R & D systems); for Th2 differentiation 20 ng/ml rmIL-4 (Miltenyi Biotec); for iTreg differentiation, 2.5 ng/ml of rhTGFβ1 were used (Miltenyi Biotec). For differentiation experiments, cells were harvested at 48 hours. For restimulation experiments, cells were differentiated for 48 hours and resuspended in fresh media with no additional cytokines for 48-72 hours. Cells were re-stimulated with PMA/ionomycin for four hours before analysis for cytokines by intracellular cytokine staining. For experiments with exogenous fatty acid, fatty acids were purchased and resuspended first with serum-free media containing BSA prior being added to culture.
Nanostring nCounter. Nanostring nCounter platform (NanoString Technologies) is used to measure the number of RNA transcripts in RNA samples (FIG. 16I, FIG. 18D). A codeset containing 312 signature genes of Th17 cell differentiation and function as well as 4 additional house-keeping genes were custom-made (Yosef et al., 2013) and used in these experiments. Experimental procedures as detailed by the manufacturer is strictly followed.

[2] = system: Th17 cells; test: qPCR of gene expression (cyp51, sc4mol, pathogenicity signature) in Th17 cells with exogenous fatty acid
[3] = system: Th17 cells; test: Flow cytometry and intracellular cytokine staining of T cells; settings: WT Th17 cells differentiated with TGF-β1+IL-6 and expanded using IL-23 with fatty acid
Procedure: WT, CD5L−/− and Rorγt−/− Th17 cells were differentiated with TGF-1+IL-6 for 96h. […] Three independent experiments were performed. […] (FIG. 18E) Naïve WT T cells were activated without polarizing cytokines (Th0) and infected with retrovirus expressing Rorγt in the presence of control-RV or CD5L-RV with or without FF-MAS (5 uM) as a source of Rorγt ligand. Each dot represents an independent infection. (FIG. 18F) WT or CD5L−/− naïve cells were differentiated with TGF-β1+IL-6. At 48h, cells were replated in fresh media with either control or FF-MAS (5 uM) as a source of Rorγt ligand. Cells were harvested for FACS analysis 72h later.
Flow cytometry and intracellular cytokine staining. Sorted naïve T cells were stimulated with phorbol 12-myristate 13-acetate (PMA) (50 ng/ml, Sigma-aldrich), ionomycin (1 μg/ml, Sigma-aldrich) and a protein transport inhibitor containing monensin (Golgistop) (BD Biosciences) for 4 h before detection by staining with antibodies.

[4] = Th17 cells differentiated with TGF-β1+IL-6

CCCCCCCCCCCCCCCC(=O)O [SFA, palmitic acid]
Irf7 expression (Nanostring), normalized to WT [1]: 0.54 | Irf8 expression (Nanostring), normalized to WT [1]: 0.99 | Itga3 expression (Nanostring), normalized to WT [1]: 0.50 | Jak3 expression (Nanostring), normalized to WT [1]: 0.91 | Jun expression (Nanostring), normalized to WT [1]: 1.11 | Kat2b expression (Nanostring), normalized to WT [1]: 0.69 | Klf9 expression (Nanostring), normalized to WT [1]: 0.68 | Klf10 expression (Nanostring), normalized to WT [1]: 0.91 | Klrd1 expression (Nanostring), normalized to WT [1]: 0.92 | Lad1 expression (Nanostring), normalized to WT [1]: 0.91 | Lgals3bp expression (Nanostring), normalized to WT [1]: 0.58 | Litaf expression (Nanostring), normalized to WT [1]: 1.48 | Lpxn expression (Nanostring), normalized to WT [1]: 0.85 | Maf expression (Nanostring), normalized to WT [1]: 0.79 | Maff expression (Nanostring), normalized to WT [1]: 0.99 | Map3k5 expression (Nanostring), normalized to WT [1]: 0.80 | Mbnl3 expression (Nanostring), normalized to WT [1]: 0.71 | Mina expression (Nanostring), normalized to WT [1]: 0.72 | Mt1 expression (Nanostring), normalized to WT [1]: 1.56 | Mt2 expression (Nanostring), normalized to WT [1]: 1.33 | Nfkbie expression (Nanostring), normalized to WT [1]: 0.69 | Nkg7 expression (Nanostring), normalized to WT [1]: 0.62 | Notch2 expression (Nanostring), normalized to WT [1]: 0.78 | Oas2 expression (Nanostring), normalized to WT [1]: 1.28 | Peli2 expression (Nanostring), normalized to WT [1]: 0.88 | Plac8 expression (Nanostring), normalized to WT [1]: 1.04 | Plagl1 expression (Nanostring), normalized to WT [1]: 2.19 | Pmepa1 expression (Nanostring), normalized to WT [1]: 0.74 | Pou2af1 expression (Nanostring), normalized to WT [1]: 1.30 | Prkd3 expression (Nanostring), normalized to WT [1]: 0.73 | Pstpip1 expression (Nanostring), normalized to WT [1]: 1.16 | Rab33a expression (Nanostring), normalized to WT [1]: 1.23 | Rasgrp1 expression (Nanostring), normalized to WT [1]: 0.75 | Rel expression (Nanostring), normalized to WT [1]: 1.20 | Rela expression (Nanostring), normalized to WT [1]: 0.70 | Rfk expression (Nanostring), normalized to WT [1]: 0.79 | Rorc expression (Nanostring), normalized to WT [1]: 1.25 | Sap30 expression (Nanostring), normalized to WT [1]: 1.23 | Sema7a expression (Nanostring), normalized to WT [1]: 1.44 | Serpinb1a expression (Nanostring), normalized to WT [1]: 0.56 | Ski expression (Nanostring), normalized to WT [1]: 0.88 | Slc6a6 expression (Nanostring), normalized to WT [1]: 0.79 | Smad3 expression (Nanostring), normalized to WT [1]: 0.81 | Socs3 expression (Nanostring), normalized to WT [1]: 0.78 | Spp1 expression (Nanostring), normalized to WT [1]: 1.10 | Spry1 expression (Nanostring), normalized to WT [1]: 1.57 | Stat4 expression (Nanostring), normalized to WT [1]: 0.77 | Stat5b expression (Nanostring), normalized to WT [1]: 0.82 | Stat6 expression (Nanostring), normalized to WT [1]: 0.73 | Sult2b1 expression (Nanostring), normalized to WT [1]: 0.38 | Tal2 expression (Nanostring), normalized to WT [1]: 1.15 | Tcf4 expression (Nanostring), normalized to WT [1]: 0.72 | Tgfb1 expression (Nanostring), normalized to WT [1]: 0.83 | Tgfb3 expression (Nanostring), normalized to WT [1]: 0.88 | Tgfbr3 expression (Nanostring), normalized to WT [1]: 0.58 | Tgm2 expression (Nanostring), normalized to WT [1]: 0.78 | Tmem229b expression (Nanostring), normalized to WT [1]: 0.69 | Tnfrsf4 expression (Nanostring), normalized to WT [1]: 1.28 | Tnip2 expression (Nanostring), normalized to WT [1]: 0.90 | Trat1 expression (Nanostring), normalized to WT [1]: 0.61 | Trim25 expression (Nanostring), normalized to WT [1]: 0.89 | Trps1 expression (Nanostring), normalized to WT [1]: 0.84 | Tsc22d3 expression (Nanostring), normalized to WT [1]: 1.06 | Ubiad1 expression (Nanostring), normalized to WT [1]: 0.94 | Vav3 expression (Nanostring), normalized to WT [1]: 0.56 | Xrcc5 expression (Nanostring), normalized to WT [1]: 0.93 | nrp1 expression (Nanostring), normalized to WT [1]: 0.74 | pou2f1 expression (Nanostring), normalized to WT [1]: 1.34 | expression of cyp51 and sc4mol mRNA ([2]; CD5L−/− Th17 cells (TGF-β1+IL-6), fatty acid 25 uM added at 48h, analyzed at 96h): modest effect | Il22 expression (qPCR) [2, 4]: increased | effector molecule expression of the pathogenicity signature (Il10, Il23r, Ccl5, Csf2, Lag3; qPCR) [2, 4]: reciprocally regulated | IL-17 and IL-23R expression [3]: only slightly increased

— patent US11427869B2, “T cell balance gene expression, compositions of matters and methods of use thereof” (THE BROAD INSTITUTE, INC., priority 2015, dated 2022)
